Values joined by “and” are separate entries in the source; they are usually repeats but may differ in a detail not shown here. Equal values may be shown once. Read-outs that look alike come from different tables or passages of the source.
Key:
[1] = In vivo bioconcentration test OECD TG 305, trout; design: species or system Oncorhynchus mykiss; settings: rainbow trout (Oncorhynchus mykiss); for concentration at 7 d: day 7 (uptake); for concentration at 40 d: day 40 (depuration)
Description: (§1) In vivo BCF values for MXC and BaP in carp and trout were determined in bioconcentration tests with both species in accordance to OECD TG 305 ([OECD, 2012]). The studies were approved by the State Agency for Nature, Environment and Consumer Protection (LANUV) North Rhine-Westphalia. The fish were exposed to a single concentration of both test items in a flow-through system for 35 days. No control groups were used. Dosing was performed by a solid-phase desorption system which was integrated in the fresh water supply allowing for a constant delivery of test concentrations to the fish chambers. The procedure of column generated concentrations was described in detail by [Schlechtriem et al. (2017)]. For the present study, two packed columns containing each 500 g Florisil® loaded with 200 mg of either MXC or BaP were used for each fish chamber. The uptake (exposure) phase of the study was followed by a 35 days depuration phase in uncontaminated water. The flow-through rate was maintained at 38.6 L/h for carp and 30.1 L/h for trout throughout the test. […] Additional 2-4 fish were sampled each, at the start and at the end of the exposure period, as well as at the end of the depuration period for lipid analysis. The total lipid content of the fish was measured individually by gravimetric analysis according to [Smedes (1999)].
(§2) Water samples (400 ml) were taken from the test chambers at least three times per week. Preparation for chemical analysis was performed by liquid-liquid extraction using n-hexane (10 ml) containing deuterated MXC (35 ng). The purified organic phase was subdivided into two equal parts and evaporated to dryness under a stream of nitrogen. One part of the residue was dissolved in 200 µL DCM for MXC analysis. The other part was mixed with 1 ml ACN: water (8:2, v/v) and subjected to BaP analysis. Whole fish samples were prepared for chemical analysis individually. After grinding the tissue with the addition of dry ice in a Thermomix™ 31 (Vorwerk), the finely powdered homogenate was lyophilized using an AdVantage freeze dryer (Ismatec). Aliquots of the dry samples (0.5 g) were spiked with deuterated internal standards (5 ng MXC-d6 and 0.2 ng BaP-d12) and extracted three times with acetone: DCM (1:1, v/v) (10 ml). The pooled extracts were then extracted with ultra-pure water (45 ml) and mixed with sodium chloride (5 g) to remove acetone and matrix. The organic phase was concentrated (0.5 ml) and dissolved in cyclohexane: DCM (1:1, v/v) (4.2 ml). This was subjected to gel permeation chromatography (GPC) (GILSON system equipped with pump 307, syringe pump 402, GX-271 liquid handler, 508 interface module, and Trilution® LC software; column i. d. 1.5 cm, material Bio-Beads S-X3, 200–400 mesh, Bio-Rad, flow rate 2 ml/min). Eluates containing MXC (26–31 min retention time) and BaP (32–38 min retention time) were evaporated to dryness and dissolved in hexane (1 ml) and toluol (50 µL), respectively. The collected MXC extracts were further concentrated by solid-phase extraction (SPE, Sep-Pak® Vac 12cc, 2 g, silica cartridges, Waters) using DCM: n-hexane (50:50, v/v) as eluent. Eluent and hexane were used to equilibrate and condition the column before sample loading and subsequent washing with DCM: n-hexane (30:70, v/v). The eluate containing MXC was dried down and reconstituted in toluol (0.5 ml).
(§3) MXC in the organic phase of samples from the in vitro incubations and in DCM extracts of water samples from the in vivo bioconcentration tests were analyzed by gas chromatography-mass spectrometry (GC-MS). The GC-MS system consisted of a HP5890 series II GC coupled to a HP5972 mass sensitive detector (Hewlett-Packard). Separations were performed on 5% phenyl polysilphenylene-siloxane capillary columns (BPX-5, 30 m length x 0.25 mm i. d, 0.25 µm df, SGE). […]

[2] = test system: rainbow trout; experiment: In vivo bioconcentration test OECD TG 305, trout; design: species or system Oncorhynchus mykiss
Description: as §1, §2, §3

[3] = in vivo, Cf data, concentration measured in individual fish
[4] = in vivo, rainbow trout, read-out: Mean Cf
[5] = in vivo, rainbow trout, day 14 (uptake), read-out: Mean Cf
[6] = in vivo, rainbow trout, day 21 (uptake), read-out: Mean Cf
[7] = in vivo, rainbow trout, day 28 (uptake), read-out: Mean Cf
[8] = in vivo, rainbow trout, day 35 (end of uptake), read-out: Mean Cf
[9] = in vivo, rainbow trout, day 44 (depuration), read-out: Mean Cf
[10] = rainbow trout (Oncorhynchus mykiss), in vivo
[11] = in vivo, rainbow trout, BaP background corrected, read-out: Cf data, concentration measured in individual fish

c1ccc2c(c1)cc1ccc3cccc4ccc2c1c34 [BaP, benzo[a]pyrene]
concentration at 14 d [1, 3]: 0.079 ng/g
concentration at 21 d [1, 3]: 0.111 ng/g
concentration at 28 d [1, 3]: 0.126 ng/g
concentration at 35 d [1, 3]: 0.084 ng/g
concentration at 44 d [1, 3]: 0.004 ng/g
concentration at 7 d [1, 4]: 0.107 ng/g
concentration at 14 d [1, 5]: 0.07 ng/g
concentration at 21 d [1, 6]: 0.141 ng/g
concentration at 28 d [1, 7]: 0.121 ng/g
concentration at 35 d [1, 8]: 0.116 ng/g
concentration at 40 d [1, 4]: 0.011 ng/g
concentration at 44 d [1, 9]: 0.003 ng/g
concentration at 21 d ([1]; whole fish, other: exposure via water in a flow-through system, rainbow trout, day 21 (uptake), BaP background corrected, read-out: Cf data, concentration measured in individual fish): 0.107 ng/g
Cf,SS concentration in fish at steady-state [2, 10]: 0.126 µg/kg
kB, in vivo estimate Trout [2, 10]: 0.40 day⁻¹
kB, in vivo estimate, range of 95% probability [2, 10]: 0.13 to 1.2 day⁻¹
kT depuration rate constant [2, 10]: 0.427 day⁻¹
kTG growth corrected depuration rate constant [2, 10]: 0.401 day⁻¹
BCFSSL lipid-normalized steady-state bioconcentration factor ([2]; rainbow trout (Oncorhynchus mykiss), in vivo, 35 d): 42.8 L/kg
Cf data, concentration measured in individual fish ([2]; rainbow trout (Oncorhynchus mykiss), in vivo, 44 d): 0.002 µg/kg

COc1ccc(C(c2ccc(OC)cc2)C(Cl)(Cl)Cl)cc1 [MXC, methoxychlor]
concentration at 7 d [1, 11]: 25.9 ng/g
concentration at 7 d [1, 4]: 23 ng/g
concentration at 14 d ([1]; in vivo, rainbow trout, day 14 (uptake), BaP background corrected, read-out: Cf data, concentration measured in individual fish): 27.1 ng/g
concentration at 14 d [1, 5]: 21.1 ng/g
concentration at 21 d ([1]; in vivo, rainbow trout, day 21 (uptake), BaP background corrected, read-out: Cf data, concentration measured in individual fish): 28 ng/g
concentration at 21 d [1, 6]: 21.5 ng/g
concentration at 28 d ([1]; in vivo, rainbow trout, day 28 (uptake), BaP background corrected, read-out: Cf data, concentration measured in individual fish): 53.2 ng/g
concentration at 28 d [1, 7]: 41.9 ng/g
concentration at 35 d [1, 8]: 46.4 ng/g
concentration at 40 d [1, 11]: 9.62 ng/g
concentration at 40 d [1, 4]: 13.8 ng/g
concentration at 44 d [1, 9]: 6.06 ng/g
concentration at 56 d ([1]; in vivo, rainbow trout, day 56 (depuration), outlier excluded, read-out: Mean Cf): 1.75 ng/g
concentration at 70 d ([1]; in vivo, rainbow trout, day 70 (end of depuration), read-out: Mean Cf): 1.01 ng/g
BCFSS ([2]; Rainbow trout - high BCFSS): 3854 L/kg
Cf,SS concentration in fish at steady-state ([2]; Rainbow trout - high BCFSS): 44.1 µg/kg
kTG growth corrected depuration rate constant ([2]; Rainbow trout - high BCFSS): 0.201 day⁻¹
kT depuration rate constant ([2]; Rainbow trout - high BCFSS (kT-high, day 56-70 values excluded)): 0.227 day⁻¹
BCFSSL lipid-normalized steady-state bioconcentration factor ([2]; Rainbow trout - high BCFSS, 5% lipid content): 2122 L/kg
Cf,SS concentration in fish at steady-state ([2]; rainbow trout): 30.76 µg/kg
kT depuration rate constant ([2]; rainbow trout): 0.150 day⁻¹
kTG growth corrected depuration rate constant ([2]; rainbow trout): 0.124 day⁻¹
BCFSSL lipid-normalized steady-state bioconcentration factor ([2]; rainbow trout, 5% lipid content): 1479 L/kg
Cf data, concentration measured in individual fish ([2]; rainbow trout, day 7 (uptake), BaP background corrected): 30.0 µg/kg and 18.7 µg/kg and 17.4 µg/kg
Cf data, concentration measured in individual fish ([2]; rainbow trout, day 14 (uptake), BaP background corrected): 18.1 µg/kg and 25.4 µg/kg and 13.7 µg/kg
Cf data, concentration measured in individual fish ([2]; rainbow trout, day 21 (uptake), BaP background corrected): 23.9 µg/kg and 14.5 µg/kg and 19.4 µg/kg
Cf data, concentration measured in individual fish ([2]; rainbow trout, day 28 (uptake), BaP background corrected): 50.1 µg/kg and 34.5 µg/kg and 29.6 µg/kg
Cf data, concentration measured in individual fish ([2]; rainbow trout, day 35 (end of uptake), BaP background corrected): 50.9 µg/kg and 49.5 µg/kg and 23.5 µg/kg and 61.7 µg/kg
Cf data, concentration measured in individual fish ([2]; rainbow trout, day 40 (depuration), BaP background corrected): 15.9 µg/kg and 15.8 µg/kg
Cf data, concentration measured in individual fish ([2]; rainbow trout, day 44 (depuration), BaP background corrected): 2.19 µg/kg and 7.53 µg/kg and 8.23 µg/kg and 6.28 µg/kg
Cf data, concentration measured in individual fish ([2]; rainbow trout, day 56 (depuration), 5.42 identified as outlier and excluded): 5.42 µg/kg and 2.06 µg/kg and 2.23 µg/kg and 0.969 µg/kg
Cf data, concentration measured in individual fish ([2]; rainbow trout, day 70 (end of depuration)): 2.46 µg/kg and 0.320 µg/kg and 0.237 µg/kg
